Source: PubChem BioAssay (NCI)
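Abbreviation: GI50, concentration required for 50% inhibition of growth. TGI is the concentration that stops growth completely.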 Where a SMILES comes first, the peptide text is derived from it. [ ]: non-standard residue; d: D form. The star is where a group is joined. Dolaproine = CO[C@@H]([C@@H]1CCCN1)[C@@H](C)C(=O)O; Dil = CC[C@H](C)[C@H](NC)[C@@H](CC(=O)O)OC; X2 = C[C@@H](N*)[C@@H](O)c1ccccc1; NMeV = CN[C@H](C(=O)O)C(C)C

Tests used:
Experiment in all cases: inhibition of tumour cell growth, NCI panel, 384-well format
NCI/ADR-RES ovarian = tested on: NCI/ADR-RES ovarian
HCC-2998 colon = tested on: HCC-2998 colon
IGROV1 ovarian = tested on: IGROV1 ovarian
K-562 leukemia = tested on: K-562 leukemia
SF-268 CNS = tested on: SF-268 CNS
NCI-H226 lung = tested on: NCI-H226 lung
MDA-MB-231 breast = tested on: MDA-MB-231 breast
HL-60(TB) leukemia = tested on: HL-60(TB) leukemia
SNB-19 CNS = tested on: SNB-19 CNS
MCF7 breast = tested on: MCF7 breast
A549 NSCLC = tested on: A549 NSCLC
ACHN renal = tested on: ACHN renal
SF-295 CNS = tested on: SF-295 CNS
UO-31 renal = tested on: UO-31 renal
MDA-MB-468 breast = tested on: MDA-MB-468 breast
NCI-H23 lung = tested on: NCI-H23 lung
OVCAR-3 ovarian = tested on: OVCAR-3 ovarian
UACC-257 melanoma = tested on: UACC-257 melanoma
M14 melanoma = tested on: M14 melanoma
OVCAR-4 ovarian = tested on: OVCAR-4 ovarian
A498 renal = tested on: A498 renal
SK-MEL-2 melanoma = tested on: SK-MEL-2 melanoma
U251 glioblastoma = tested on: U251 glioblastoma
T-47D breast = tested on: T-47D breast
BT-549 breast = tested on: BT-549 breast
NCI-H322M lung = tested on: NCI-H322M lung
CCRF-CEM leukemia = tested on: CCRF-CEM leukemia
DU-145 prostate = tested on: DU-145 prostate
786-0 renal = tested on: 786-0 renal
SW-620 colon = tested on: SW-620 colon
HOP-62 NSCLC = tested on: HOP-62 NSCLC
MOLT-4 leukemia = tested on: MOLT-4 leukemia
RPMI-8226 leukemia = tested on: RPMI-8226 leukemia
LOX IMVI melanoma = tested on: LOX IMVI melanoma
HT29 colon = tested on: HT29 colon
MALME-3M melanoma = tested on: MALME-3M melanoma
SK-MEL-5 melanoma = tested on: SK-MEL-5 melanoma
OVCAR-5 ovarian = tested on: OVCAR-5 ovarian
CAKI-1 renal = tested on: CAKI-1 renal
OVCAR-8 ovarian = tested on: OVCAR-8 ovarian
HOP-92 NSCLC = tested on: HOP-92 NSCLC
SR leukemia = tested on: SR leukemia
NCI-H522 lung = tested on: NCI-H522 lung
SK-OV-3 ovarian = tested on: SK-OV-3 ovarian
HCT-15 colon = tested on: HCT-15 colon
TK-10 renal = tested on: TK-10 renal
MDA-MB-435 melanoma = tested on: MDA-MB-435 melanoma
RXF 393 renal = tested on: RXF 393 renal
SN12C renal = tested on: SN12C renal
UACC-62 melanoma = tested on: UACC-62 melanoma
HCT-116 colon = tested on: HCT-116 colon
NCI-H460 NSCLC = tested on: NCI-H460 NSCLC
COLO 205 colon = tested on: COLO 205 colon
KM12 colon = tested on: KM12 colon
SF-539 CNS = tested on: SF-539 CNS

CC[C@H](C)[C@@H]([C@@H](CC(=O)N1CCC[C@H]1[C@H](OC)[C@@H](C)C(=O)N[C@H](C)[C@@H](O)c1ccccc1)OC)N(C)C(=O)[C@@H](NC(=O)[C@@H](NC)C(C)C)C(C)C (H-[NMeV]V[Dil][Dolaproine]-X2)
GI50 (NCI/ADR-RES ovarian): 105 nM | TGI (NCI/ADR-RES ovarian): 266 nM | GI50 (HCC-2998 colon): < 10 nM | TGI (HCC-2998 colon): < 10 nM | GI50 (IGROV1 ovarian): < 10 nM | TGI (IGROV1 ovarian): 91.6 nM | GI50 (K-562 leukemia): < 10 nM | TGI (K-562 leukemia): < 10 nM | GI50 (SF-268 CNS): < 10 nM | TGI (SF-268 CNS): < 10 nM | GI50 (NCI-H226 lung): < 10 nM | TGI (NCI-H226 lung): < 10 nM | GI50 (MDA-MB-231 breast): < 10 nM | TGI (MDA-MB-231 breast): < 10 nM | GI50 (HL-60(TB) leukemia): < 10 nM | TGI (HL-60(TB) leukemia): < 10 nM | GI50 (SNB-19 CNS): < 10 nM | TGI (SNB-19 CNS): < 10 nM | GI50 (MCF7 breast): < 10 nM | TGI (MCF7 breast): 121 nM | GI50 (A549 NSCLC): < 10 nM | TGI (A549 NSCLC): < 10 nM | GI50 (ACHN renal): < 10 nM | TGI (ACHN renal): > 100000 nM | GI50 (SF-295 CNS): < 10 nM | TGI (SF-295 CNS): < 10 nM | GI50 (UO-31 renal): < 10 nM | TGI (UO-31 renal): > 100000 nM | GI50 (MDA-MB-468 breast): < 10 nM | TGI (MDA-MB-468 breast): < 10 nM | GI50 (NCI-H23 lung): < 10 nM | TGI (NCI-H23 lung): < 10 nM | GI50 (OVCAR-3 ovarian): < 10 nM | TGI (OVCAR-3 ovarian): < 10 nM | GI50 (UACC-257 melanoma): < 10 nM | TGI (UACC-257 melanoma): 12700 nM | GI50 (M14 melanoma): < 10 nM | TGI (M14 melanoma): < 10 nM | GI50 (OVCAR-4 ovarian): < 10 nM | TGI (OVCAR-4 ovarian): 24300 nM | GI50 (A498 renal): < 10 nM | TGI (A498 renal): 11.2 nM | GI50 (SK-MEL-2 melanoma): < 10 nM | TGI (SK-MEL-2 melanoma): < 10 nM | GI50 (U251 glioblastoma): < 10 nM | TGI (U251 glioblastoma): < 10 nM | GI50 (T-47D breast): < 10 nM | TGI (T-47D breast): > 100000 nM | GI50 (BT-549 breast): < 10 nM | TGI (BT-549 breast): < 10 nM | GI50 (NCI-H322M lung): < 10 nM | TGI (NCI-H322M lung): > 100000 nM | GI50 (CCRF-CEM leukemia): < 10 nM | TGI (CCRF-CEM leukemia): < 10 nM | GI50 (DU-145 prostate): < 10 nM | TGI (DU-145 prostate): < 10 nM | GI50 ([…]-0 renal): < 10 nM | TGI (786-0 renal): < 10 nM | GI50 (SW-620 colon): < 10 nM | TGI (SW-620 colon): > 100000 nM | GI50 (HOP-62 NSCLC): < 10 nM | TGI (HOP-62 NSCLC): 30.4 nM | GI50 (MOLT-4 leukemia): < 10 nM | TGI (MOLT-4 leukemia): < 10 nM | GI50 (RPMI-8226 leukemia): < 10 nM | TGI (RPMI-8226 leukemia): < 10 nM | GI50 (LOX IMVI melanoma): < 10 nM | TGI (LOX IMVI melanoma): < 10 nM | GI50 (HT29 colon): < 10 nM | TGI (HT29 colon): < 10 nM | GI50 (MALME-3M melanoma): < 10 nM | TGI (MALME-3M melanoma): < 10 nM | GI50 (SK-MEL-5 melanoma): < 10 nM | TGI (SK-MEL-5 melanoma): < 10 nM | GI50 (OVCAR-5 ovarian): < 10 nM | TGI (OVCAR-5 ovarian): > 100000 nM | GI50 (CAKI-1 renal): < 10 nM | TGI (CAKI-1 renal): 24400 nM | GI50 (OVCAR-8 ovarian): < 10 nM | TGI (OVCAR-8 ovarian): < 10 nM | GI50 (HOP-92 NSCLC): < 10 nM | TGI (HOP-92 NSCLC): < 10 nM | GI50 (SR leukemia): < 10 nM | TGI (SR leukemia): < 10 nM | GI50 (NCI-H522 lung): < 10 nM | TGI (NCI-H522 lung): < 10 nM | GI50 (SK-OV-3 ovarian): < 10 nM | TGI (SK-OV-3 ovarian): < 10 nM | GI50 (HCT-15 colon): < 10 nM | TGI (HCT-15 colon): 63.2 nM | GI50 (TK-10 renal): < 10 nM | TGI (TK-10 renal): > 100000 nM | GI50 (MDA-MB-435 melanoma): < 10 nM | TGI (MDA-MB-435 melanoma): < 10 nM | GI50 (RXF 393 renal): < 10 nM | TGI (RXF 393 renal): < 10 nM | GI50 (SN12C renal): < 10 nM | TGI (SN12C renal): > 100000 nM | GI50 (UACC-62 melanoma): < 10 nM | TGI (UACC-62 melanoma): < 10 nM | GI50 (HCT-116 colon): < 10 nM | TGI (HCT-116 colon): < 10 nM | GI50 (NCI-H460 NSCLC): < 10 nM | TGI (NCI-H460 NSCLC): < 10 nM | GI50 (COLO 205 colon): < 10 nM | TGI (COLO 205 colon): < 10 nM | GI50 (KM12 colon): < 10 nM | TGI (KM12 colon): < 10 nM | GI50 (SF-539 CNS): < 10 nM | TGI (SF-539 CNS): < 10 nM
